Assay results taken from patent US20040253289A1, “Natural plant compound with anti-HIV activity” (MIKONIK TECHNOLOGIES, LTD., priority 2004, published 2004).

Columns and labels:
[1] = test system: human immunodeficiency virus; details: cited from earlier work; for inhibition of viral replication: in vitro
[2] = test system: HIV-1zmb high/rapid strain; assay: Indirect immunofluorescence (IF), HIV-specific antigens on infected cells; format: cell-based; details: 3rd day after infecting
Text: (§1) In all experiments the suspensional T-lymphoblastoid cell line MT-4 was used. Passages have been carried out every three days for achieving the initial cell concentration at about 4-5·10^5 cells ml^−1.
(§2) HIV-1zmb high/rapid strain with the titer more than 6.0 log TCID50 isolated in Belarus has been used in the tests.
(§3) The tests have been carried out under therapeutic circuit when the testing compound and virus were put into the cell culture simultaneously.
The indirect immunofluorescence assay is a useful means for determining the number of cells productively infected with HIV [Johnson V. A., Byington R. E. HIV indirect immunofluorescence assay. In “Techniques in HIV Research”: Stockton Press, 1990. P. 87-91]. This assay is quantitative and can be done using living cells. The technique gives the possibility to determine HIV-specific antigens expressed on cell surface membranes of the virus-infected cells. On the 3rd day after infecting, cells have been transferred onto wells of the laminated multiwell slides and fixed by cold (4° C.) acetone. Then the samples with fixed cells were treated by HIV-1-seropositive serum and then by FTC-conjugated sheep anti-human IgG. The resulting effect was estimated via evaluation of percentage of positive cells that was calculated using fluorescent microscope and taking into account 200 cells. […]

[3] = test system: HIV-1zmb high/rapid strain; assay: In vitro anti-HIV activity in infected cell culture (overall, three tests); format: cell-based
Text: as §1, §2, §3

[4] = test system: mice; details: acute toxicity; cited from earlier work
[5] = test system: rats; details: acute toxicity; cited from earlier work
[6] = prolonged and chronic experiments; cited from earlier work
[7] = test system: Siberian sturgeon fry; details: Siberian sturgeon fry treated with solution; cited from earlier work

C[C@H](CCCC(C)(C)O)[C@H]1CC[C@H]2[C@@H]3CC=C4C[C@@H](O)CC[C@]4(C)[C@H]3CC[C@]12C [25-hydroxycholesterol]
inhibition of viral replication [1]: inhibited viral replication at micromolar concentrations

CC(C)[C@@H](C)[C@@H](O)[C@H](O)[C@@H](C)[C@H]1CC[C@H]2[C@@H]3COC(=O)[C@H]4C[C@H](O)[C@H](O)C[C@]4(C)[C@H]3CC[C@]12C [24-epibrassinolide]
production of viral-specific antigens on the cell's surface [2]: significantly decreased production of viral-specific antigens
amount of the living cells in the infected culture, higher in comparison with untreated control ([3]; 4-5th days after infecting): more than 50%
average efficient concentration as anti-HIV agent in vitro ([3]; each test done in three repetitions, listed as EBI): 10 ng/mL
LD50 [4]: more than 1000 mg·kg^−1
LD50 [5]: more than 2000 mg·kg^−1
postponed negative effects [6]: no postponed negative effects
increase of bacteriolytic activity of lysozyme in comparison with the control fish [7]: up to 50%
γ-globulin level higher than in the control [7]: 10 to 65%

C[C@H](CCCC(C)(C)O)[C@H]1CC[C@H]2[C@@H]3[C@@H](O)C=C4C[C@@H](O)CC[C@]4(C)[C@H]3CC[C@]12C [7β,25-dihydroxycholesterol]
antiviral concentration, fold lower than the highest concentration tested at which no toxicity was measurable ([1]; HIV replication in vitro): 13- to 25 fold
inhibition of viral replication [1]: inhibited viral replication at micromolar concentrations

CC(C)CCC[C@@H](C)[C@H]1CC[C@H]2[C@@H]3[C@@H](O)C=C4C[C@@H](O)CC[C@]4(C)[C@H]3CC[C@]12C [7β-hydroxycholesterol]
inhibition of viral replication [1]: inhibited viral replication at micromolar concentrations
